Measurements reported in patent US20040102431A1, “Substituted amino-aza-cycloalkanes useful against malaria” (priority 2000, published 2004).

What follows are molecules tested against plasmepsin II (Plasmodium falciparum, UniProt P46925) (assay: biochemical). Settings: Additional Examples table; FRET, pH 5, 37° C., 40 min, substrate 1 μM; read-out: IC50 (nM) on plasmepsin II.
Chain of plasmepsin II (P46925 125-453): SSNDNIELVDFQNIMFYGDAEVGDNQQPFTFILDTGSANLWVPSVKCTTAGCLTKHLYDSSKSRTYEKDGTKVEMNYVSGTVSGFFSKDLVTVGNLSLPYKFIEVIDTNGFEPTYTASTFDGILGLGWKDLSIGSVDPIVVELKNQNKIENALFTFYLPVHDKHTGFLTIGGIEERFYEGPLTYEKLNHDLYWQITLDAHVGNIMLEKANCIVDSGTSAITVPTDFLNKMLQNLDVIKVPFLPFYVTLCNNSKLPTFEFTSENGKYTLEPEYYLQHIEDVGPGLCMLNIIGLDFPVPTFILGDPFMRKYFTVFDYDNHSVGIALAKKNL

Row | Structure (SMILES) | IC50 [nM]
1 | CCCCCc1ccc(CN(Cc2ccc(-c3ccc(OC)c(OC)c3)cc2)C2CCN(Cc3ccccc3)CC2)cc1 [Example 88, (1-Benzylpiperidin-4-yl)-(3′,4′-dimethoxybiphenyl-4-ylmethyl)-(4-pentyl-benzyl)amine] | 255
2 | CCCCCc1ccc(C(=O)N(Cc2ccc(-c3ccc(F)cc3)cc2)C2CCN(Cc3ccccc3)CC2)cc1 [Example 89, N-(1-Benzylpiperidin-4-yl)-N-(4′-fluorobiphenyl-4-ylmethyl)-4-pentylbenzamide] | 260
3 | C=CCOc1ccc(CN(C(=O)c2ccc(CCCCC)cc2)C2CCN(Cc3ccccc3)CC2)cc1 [Example 90, N-(4-Allyloxybenzyl)-N-(1-benzylpiperidin-4-yl)-4-pentylbenzamide] | 270
4 | CCCCCc1ccc(CN(Cc2ccc(-c3ccc4c(c3)OCO4)cc2)C2CCN(Cc3ccccc3)CC2)cc1 [Example 91, (4-Benzo[1,3]dioxol-5-yl-benzyl)-(1-benzylpiperidin-4-yl)-(4-pentyl-benzyl)amine] | 275
5 | CCCCCc1ccc(C(=O)N(Cc2ccc(OCc3ccccc3)cc2O)C2CCN(Cc3ccccc3)CC2)cc1 [Example 92, N-(4-Benzyloxy-2-hydroxy-benzyl)-N-(1-benzylpiperidin-4-yl)-4-pentylbenzamide] | 281
6 | CCCCCc1ccc(C(=O)N(Cc2ccc3c(c2)OCO3)C2CCN(Cc3ccccc3)CC2)cc1 [Example 93, N-Benzo[1,3]dioxol-5-ylmethyl-N-(1-benzylpiperidin-4-yl)-4-pentyl-benzamide] | 284
7 | CCCCCc1ccc(C(=O)N(Cc2ccc(OCC)cc2)C2CCN(Cc3ccccc3)CC2)cc1 [Example 94, N-(1-Benzylpiperidin-4-yl)-N-(4-ethoxybenzyl)-4-pentylbenzamide] | 284
8 | CCCCCc1ccc(CN(Cc2ccc(-c3ccc(C#N)cc3)cc2)C2CCN(Cc3ccccc3)CC2)cc1 [Example 95, 4′-{[(1-Benzylpiperidin-4-yl)-(4-pentylbenzyl)amino]methyl}-biphenyl-4-carbonitrile] | 294
9 | CCCCCc1ccc(C(=O)N(Cc2ccc(-c3ccccc3)cc2)C2CCN(Cc3cccc(C(F)(F)F)c3)CC2)cc1 [Example 96, N-Biphenyl-4-ylmethyl-4-pentyl-N-[1-(3-trifluoromethylbenzyl)piperidin-4-yl]benzamide] | 319
10 | CCCCCCc1ccc(C(=O)N(Cc2ccc(-c3ccccc3)cc2)C2CCN(Cc3ccccc3)CC2)cc1 [Example 97, N-(1-Benzylpiperidin-4-yl)-N-biphenyl-4-ylmethyl-4-hexyl-benzamide] | 322
11 | CCCCCc1ccc(C(=O)N(Cc2ccc(OC)cc2)C2CCN(Cc3ccccc3)CC2)cc1 [Example 98, N-(1-Benzylpiperidin-4-yl)-N-(4-methoxybenzyl)-4-pentyl-benzamide] | 322
12 | CCCCCc1ccc(C(=O)N(Cc2ccc(-c3ccccc3)cc2)C2CCN(Cc3ccccc3O)CC2)cc1 [Example 99, N-Biphenyl-4-ylmethyl-N-[1-(2-hydroxybenzyl)piperidin-4-yl]-4-pentylbenzamide] | 361
13 | CCCCC[C@H]1CC[C@H](C(=O)N(Cc2ccc(-c3ccccc3)cc2)C2CCN(Cc3ccccc3)CC2)CC1 [Example 100, trans-4-Pentylcyclohexane carboxylic acid(1-benzylpiperidin-4-yl)-biphenyl-4-ylmethyl amide] | 374
14 | CCCCCc1ccc(C(=O)N(Cc2ccc(-c3ccccc3)cc2)C2CCN(Cc3ccc(F)cc3)CC2)cc1 [Example 101, N-Biphenyl-4-ylmethyl-N-[1-(4-fluorobenzyl)piperidin-4-yl]-4-pentylbenzamide] | 385
15 | CCCCCc1ccc(CN(Cc2ccc(OCc3ccc(F)cc3)cc2)C2CCN(Cc3ccccc3)CC2)cc1 [Example 102, (1-Benzylpiperidin-4-yl)-[4-(4-fluorobenzyloxy)benzyl]-(4-pentylbenzyl)amine] | 414
16 | CCCCCc1ccc(CN(Cc2ccc(OCc3ccccc3)cc2)C2CCN(Cc3ccccc3)CC2)cc1 [Example 103, (4-Benzyloxybenzyl)-(1-benzyl-piperidin-4-yl)-(4-pentylbenzyl)amine] | 431
17 | CCCCCc1ccc(C(=O)N(Cc2ccc(-c3ccc(N(C)C)cc3)cc2)C2CCN(Cc3ccccc3)CC2)cc1 [Example 106, N-(1-Benzylpiperidin-4-yl)-N-(4′-dimethylaminobiphenyl-4-ylmethyl)-4-pentylbenzamide] | 461

The remaining molecules from weak to strong by IC50, led by results:

Row | IC50 [nM] | Structure (SMILES)
18 | 250 | CCCCCc1ccc(C(=O)N(Cc2ccc(-c3cncnc3)cc2)C2CCN(Cc3ccccc3)CC2)cc1 [Example 87, N-(1-Benzylpiperidin-4-yl)-4-pentyl-N-(4-pyrimidin-5-ylbenzyl)benzamide]
19 | 248 | CCCCCc1ccc(C(=O)N(Cc2ccc3ccccc3c2)C2CCN(Cc3ccccc3)CC2)cc1 [Example 86, N-(1-Benzylpiperidin-4-yl)-N-naphthalen-2-ylmethyl-4-pentylbenzamide]
20 | 211 | CCCCCc1ccc(C(=O)N(Cc2ccc(-c3cccnc3)cc2)C2CCN(Cc3cc4ccccc4o3)CC2)cc1 [Example 85, N-(1-Benzofuran-2-ylmethyl-piperidin-4-yl)-4-pentyl-N-(4-pyridin-3-yl-benzyl)benzamide]
21 | 209 | CCCCCc1ccc(C(=O)N(Cc2ccc(-c3ccccn3)cc2)C2CCN(Cc3ccccc3)CC2)cc1 [Example 84, N-(1-Benzylpiperidin-4-yl)-4-pentyl-N-(4-pyridin-2-yl-benzyl)benzamide]
22 | 204 | CCCCCc1ccc(C(=O)N(Cc2ccc(OC(C)C)cc2)C2CCN(Cc3ccccc3)CC2)cc1 [Example 83, N-(1-Benzylpiperidin-4-yl)-N-(4-isopropoxybenzyl)-4-pentylbenzamide]
23 | 196 | CCCCCc1ccc(C(=O)N(Cc2ccc(-c3ccccc3)cc2)C2CCN(CC3=CCCCC3)CC2)cc1 [Example 82, N-Biphenyl-4-ylmethyl-N-(1-cyclohex-1-enylmethylpiperidin-4-yl)-4-pentylbenzamide]
24 | 192 | CCCCCc1ccc(C(=O)N(Cc2ccc(-c3ccccc3)cc2)C2CCN(Cc3ccc(O)cc3)CC2)cc1 [Example 81, N-Biphenyl-4-ylmethyl-N-[1-(4-hydroxybenzyl)piperidin-4-yl]-4-pentylbenzamide]
25 | 187 | CCCCCc1ccc(C(=O)N(Cc2ccc(OC(F)(F)F)cc2)C2CCN(Cc3ccccc3)CC2)cc1 [Example 80, N-(1-Benzylpiperidin-4-yl)-4-pentyl-N-(4-trifluoromethoxybenzyl)benzamide]
26 | 176 | CCCCCc1ccc(C(=O)N(Cc2ccc(-c3ccccn3)cc2)C2CCN(Cc3ccncc3)CC2)cc1 [Example 79, 4-Pentyl-N-(4-pyridin-2-yl-benzyl)-N-(1-pyridin-4-ylmethylpiperidin-4-yl)benzamide]
27 | 168 | CCCCCc1ccc(C(=O)N(Cc2ccc(-c3ccccn3)cc2)C2CCN(Cc3ccoc3)CC2)cc1 [Example 78, N-(1-Furan-3-ylmethylpiperidin-4-yl)-4-pentyl-N-(4-pyridin-2-yl-benzyl)benzamide]
28 | 153 | CCCCCc1ccc(C(=O)N(Cc2ccc(C(F)(F)F)c(F)c2)C2CCN(Cc3ccccc3)CC2)cc1 [Example 77, N-(1-Benzylpiperidin-4-yl)-N-(3-fluoro-4-trifluoromethylbenzyl)-4-pentylbenzamide]
29 | 152 | CCCCCc1ccc(C(=O)N(Cc2ccc(-c3ccccc3F)cc2)C2CCN(Cc3ccc(O)cc3)CC2)cc1 [Example 76, N-(2′-Fluorobiphenyl-4-ylmethyl)-N-[1-(4-hydroxybenzyl)piperidin-4-yl]-4-pentylbenzamide]
30 | 141 | CCCCCc1ccc(C(=O)N(Cc2ccc(OCc3ccccc3)cc2)[C@H]2CCN(Cc3ccccc3)C2)cc1 [Example 75, N-(4-Benzyloxybenzyl)-N-((3S)-1-benzylpyrrolidin-3-yl)-4-pentylbenzamide]
31 | 140 | CCCCCc1ccc(C(=O)N(Cc2ccc(-c3cccc(C)c3)cc2)C2CCN(Cc3ccccc3)CC2)cc1 [Example 74, N-(1-Benzylpiperidin-4-yl)-N-(3′-methylbiphenyl-4-ylmethyl)-4-pentylbenzamide]
32 | 128 | CCCCCc1ccc(C(=O)N(Cc2ccc(-c3cccnc3)cc2)C2CCN(Cc3ccc(CO)o3)CC2)cc1 [Example 72, N-[1-(5-Hydroxymethyl-furan-2-ylmethyl)piperidin-4-yl]-4-pentyl-N-(4-pyridin-3-ylbenzyl)benzamide]
33 | 128 | CCCCCc1ccc(C(=O)N(Cc2ccc(-c3cccnc3)cc2)C2CCN(CC3CC3)CC2)cc1 [Example 73, N-(1-Cyclopropylmethylpiperidin-4-yl)-4-pentyl-N-(4-pyridin-3-yl-benzyl)benzamide]
34 | 127 | CCCCCc1ccc(C(=O)N(Cc2ccc(-c3ccccc3)cc2)C2CCN(Cc3ccoc3)CC2)cc1 [Example 71, N-Biphenyl-4-ylmethyl-N-(1-furan-3-ylmethyl-piperidin-4-yl)-4-pentylbenzamide]
35 | 125 | CCCCCc1ccc(C(=O)N(Cc2ccc(-c3ccccn3)cc2)C2CCN(CC3=CCCCC3)CC2)cc1 [Example 70, N-(1-Cyclohex-1-enylmethylpiperidin-4-yl)-4-pentyl-N-(4-pyridin-2-ylbenzyl)benzamide]
36 | 123 | CCCCCc1ccc(C(=O)N(Cc2ccc(-c3ccccc3F)cc2)C2CCN(CC3=CCCCC3)CC2)cc1 [Example 69, N-(1-Cyclohex-1-enylmethylpiperidin-4-yl)-N-(2′-fluorobiphenyl-4-ylmethyl)-4-pentylbenzamide]
37 | 120 | CCCCCc1ccc(C(=O)N(Cc2ccc(-c3ccccc3Cl)cc2)C2CCN(Cc3ccccc3)CC2)cc1 [Example 68, N-(1-Benzylpiperidin-4-yl)-N-(2′-chlorobiphenyl-4-ylmethyl)-4-pentylbenzamide]
38 | 104 | CCCCCc1ccc(C(=O)N(Cc2ccc(-c3ccncc3)cc2)C2CCN(Cc3ccccc3)CC2)cc1 [Example 66, N-(1-Benzylpiperidin-4-yl)-4-pentyl-N-(4-pyridin-4-ylbenzyl)benzamide]
39 | 103 | CCCCCc1ccc(C(=O)N(Cc2ccc(-c3ccccc3)cc2)C2CCN(Cc3cccnc3)CC2)cc1 [Example 65, N-Biphenyl-4-ylmethyl-4-pentyl-N-(1-pyridin-3-ylmethylpiperidin-4-yl)benzamide]
